Test results from article PMC11414412, “Design and synthesis new indole-based aromatase/iNOS inhibitors with apoptotic antiproliferative activity” (Frontiers in Chemistry, 2024).

Experiments:
[1] = system: Caspase-3; assay: Caspase-3 activation assay; type: cell-based, human; conditions: A-594 cells; for Caspase-3 Fold change: at IC50 concentration, vs untreated control; for Caspase-3 Conc: compound at its IC50 concentration
[2] = system: Bcl-2; assay: Bcl-2 inhibition assay; type: cell-based, human; conditions: lung (A-549) cancer cells; for Bcl-2 Conc: compound at IC50
Method: 4.2.8. Bcl-2 inhibition assay
Mix all reagents thoroughly without foaming before use. Wash the microwells twice with approximately 300 μL Wash Buffer per well with thorough aspiration of microwell contents between washes. Take caution not to scratch the surface of the microwells. After the last wash, empty the wells and tap microwell strips on absorbent pad or paper towel to remove excess Wash Buffer. Use the microwell strips immediately after washing or place upside down on a wet absorbent paper for not longer than 15 minutes. […] Add 100 μL of Sample […]
Diluent in duplicate to all standard wells and to the blank wells. Prepare standard (1:2 dilution) in duplicate ranging from 32 ng/mL to 0.5 ng/mL. Add 100 μL of Sample Diluent, in duplicate, to the blank wells. Add 80 μL of Sample Diluent, in duplicate, to the sample wells. Add 20 μL of each Sample, in duplicate, to the designated wells. Add 50 μL of diluted biotin-conjugate to all wells, including the blank wells. Cover with a plate cover and incubate at room temperature, on a microplate shaker at 100 rpm if available, for 2 hours. Remove plate cover and empty the wells.
Wash microwell strips 3 times as described in step 2. Add 100 μL of diluted Streptavidin-HRP to all wells, including the blank wells. Cover with a plate cover and incubate at room temperature, on a microplate shaker at 100 rpm if available, for 1 hour. Remove plate cover and empty the wells.
Wash microwell strips 3 times as described in step 2. Proceed to the next step. Pipette 100 μl of mixed TMB Substrate Solution to all wells, including the blanks. Incubate the microwell strips at room temperature (18° to 25°C) for about 15 minutes, if available on a rotator set at 100 rpm.
Avoid direct exposure to intense light. The point, at which the substrate reaction is stopped, is often determined by the ELISA reader. Many ELISA readers record absorbance only up to 2.0
O.D. Therefore, the color development within individual microwells must be watched by the person running the assay and the substrate reaction stopped before positive wells are no longer properly detectable. Stop the enzyme reaction by quickly pipetting 100 μL of Stop Solution into each well, including the blank wells. It is important that the Stop Solution is spread quickly and uniformly throughout the microwells to completely inactivate the enzyme. Results must be read immediately after the Stop Solution is added or within one hour i f the microwell strips are stored at 2 - 8°C in the dark. Read absorbance of each microwell on a spectrophotometer using 450 nm as the primary wavelength.

`CCc1c2cc(Cl)ccc2n2c(C)c(C(=O)OCc3ccccc3)[nH]c(=O)c12` [Compound 5, benzyl 8-chloro-10-ethyl-4-methyl-1-oxo-1,2-dihydropyrazino [1,2-a]indole-3-carboxylate] gave a melting point of 180 to 182 °C.
In the case of `CCc1c2cc(Cl)ccc2n2cc(-c3ccccc3)[nH]c(=O)c12` [Compound 16, 8-Chloro-10-ethyl-3-phenylpyrazino [1,2-a]indol-1(2H)-one], the “Caspase-3 Fold change” value [1] is reported as 8, the “Caspase-3 Conc” value [1] is reported as 530 ± 5 pg/mL and the “Bcl-2 Fold reduction” value ([2]; at IC50, vs untreated control) is reported as ~6. For the same molecule, the “Bcl-2 Conc” value [2] was 0.85 ng/mL.
For `CCc1c2cc(Cl)ccc2n2cc(Cc3ccccc3)n(C)c(=O)c12` [Compound 12, 3-Benzyl-8-chloro-10-ethyl-2-methylpyrazino[1,2-a]indol-1(2H)-one], the “Caspase-3 Fold change” value [1] was 9, the “Caspase-3 Conc” value [1] was 580 ± 5 pg/mL and the “Bcl-2 Conc” value [2] was 0.65 ng/mL.
